According to ChEMBL document CHEMBL4014287, “Jesridonin in combination with paclitaxel demonstrates synergistic anti-tumor activity in human esophageal carcinoma cells” (Bioorg Med Chem Lett, 2017):
Calls of active or inactive are those of the source. The rule behind the calls is not given here.

Key:
ECa-109 cell line [1] = assay: Induction of apoptosis in human EC109 cells assessed as increase in PUMA level at 15 uM in presence of 5 nM paclitaxel by Western blot method; assay type: functional, cell-based
ECa-109 cell line [2] = assay: Antitumor activity against human EC109 cells xenografted in nude mouse assessed as tumor growth inhibition at 10 mg/kg in presence of 5 mg/kg paclitaxel measured after 21 days relative to control; assay type: functional
ECa-109 cell line [3] = assay: Induction of apoptosis in human EC109 cells assessed as late apoptotic cells at 15 uM after 24 hrs in presence of paclitaxel by Annexin V-FITC/propidium iodide staining based flow cytometry (reference value: 1%); assay type: functional
ECa-109 cell line [4] = assay: Cytotoxicity against human EC109 cells assessed as combination index at 30 uM in presence of 10 nM paclitaxel; assay type: functional
ECa-109 cell line [5] = assay: Induction of apoptosis in human EC109 cells assessed as nuclear condensation at 15 uM after 24 hrs by Hochest 33258 staining based fluorescent microscopic analysis; assay type: functional, cell-based
Mus musculus [6] = assay: Hepatotoxicity in nude mouse xenografted with human EC109 cells at 10 mg/kg in presence of paclitaxel measured after 21 days by histopathological analysis; assay type: toxicity, organism-based; conditions: in vivo, 504 h
ECa-109 cell line [7] = assay: Cytotoxicity against human EC109 cells assessed as combination index at 30 uM in presence of 5 nM paclitaxel; assay type: functional
ECa-109 cell line [8] = assay: Induction of apoptosis in human EC109 cells assessed as increase in Bid level at 15 uM in presence of 5 nM paclitaxel by Western blot method; assay type: functional, cell-based
ECa-109 cell line [9] = assay: Induction of apoptosis in human EC109 cells assessed as decrease in pro-caspase 9 expression at 15 uM in presence of 5 nM paclitaxel by Western blot method; assay type: functional, cell-based
Mus musculus [10] = assay: Hepatotoxicity in nude mouse xenografted with human EC109 cells assessed as change in serum GGT level at 10 mg/kg in presence of paclitaxel measured after 21 days; assay type: toxicity, organism-based; conditions: in vivo, 504 h
ECa-109 cell line [11] = assay: Induction of apoptosis in human EC109 cells assessed as decrease in Mcl-1 level at 15 uM in presence of 5 nM paclitaxel by Western blot method; assay type: functional, cell-based
ECa-109 cell line [12] = assay: Induction of apoptosis in human EC109 cells assessed as nuclear shrinkage at 15 uM after 24 hrs by Hochest 33258 staining based fluorescent microscopic analysis; assay type: functional, cell-based
ECa-109 cell line [13] = assay: Antitumor activity against human EC109 cells xenografted in nude mouse assessed as induction of necrosis at 10 mg/kg measured after 21 days by H and E staining based assay; assay type: functional, organism-based
Mus musculus [14] = assay: Hepatotoxicity in nude mouse xenografted with human EC109 cells assessed as change in serum AST level at 10 mg/kg in presence of paclitaxel measured after 21 days; assay type: toxicity, organism-based; conditions: in vivo, 504 h
ECa-109 cell line [15] = assay: Cytotoxicity against human EC109 cells assessed as combination index at 30 uM in presence of 2.5 nM paclitaxel; assay type: functional
Mus musculus [16] = assay: Toxicity in nude mouse xenografted with human EC109 cells assessed as skin ulceration at 10 mg/kg in presence of paclitaxel measured after 21 days; assay type: organism-based; conditions: in vivo, 504 h
ECa-109 cell line [17] = assay: Antitumor activity against human EC109 cells xenografted in nude mouse assessed as reduction in tumor volume at 10 mg/kg in presence of 5 mg/kg paclitaxel measured after 21 days; assay type: functional, organism-based
ECa-109 cell line [18] = assay: Cytotoxicity against human EC109 cells assessed as combination index at 5 uM in presence of 2.5 nM paclitaxel; assay type: functional
Mus musculus [19] = assay: Nephrotoxicity in nude mouse xenografted with human EC109 cells at 10 mg/kg in presence of paclitaxel measured after 21 days by histopathological analysis; assay type: toxicity, organism-based; conditions: in vivo, 504 h
ECa-109 cell line [20] = assay: Induction of apoptosis in human EC109 cells assessed as increase in Bak level at 15 uM in presence of 5 nM paclitaxel by Western blot method; assay type: functional, cell-based
ECa-109 cell line [21] = assay: Cytotoxicity against human EC109 cells assessed as reduction in cell viability after 24 hrs by MTT assay; assay type: functional, cell-based
ECa-109 cell line [22] = assay: Induction of apoptosis in human EC109 cells assessed as decrease in Bcl-2 level at 15 uM in presence of 5 nM paclitaxel by Western blot method; assay type: functional, cell-based
Mus musculus [23] = assay: Hepatotoxicity in nude mouse xenografted with human EC109 cells assessed as change in serum albumin level at 10 mg/kg in presence of paclitaxel measured after 21 days; assay type: toxicity, organism-based; conditions: in vivo, 504 h
ECa-109 cell line [24] = assay: Antitumor activity against human EC109 cells xenografted in nude mouse assessed as induction of necrosis at 10 mg/kg in presence of paclitaxel measured after 21 days by H and E staining based assay; assay type: functional, organism-based
ECa-109 cell line [25] = assay: Induction of apoptosis in human EC109 cells assessed as viable cells at 15 uM after 24 hrs by Annexin V-FITC/propidium iodide staining based flow cytometry (reference value: 96.1%); assay type: functional; conditions: ECa-109, 24 h, read-out: Activity
Mus musculus [26] = assay: Toxicity in nude mouse xenografted with human EC109 cells assessed as body weight loss at 10 mg/kg in presence of paclitaxel measured after 21 days; assay type: organism-based; conditions: in vivo, 504 h
Mus musculus [27] = assay: Hepatotoxicity in nude mouse xenografted with human EC109 cells assessed as change in serum ALP level at 10 mg/kg in presence of paclitaxel measured after 21 days; assay type: toxicity, organism-based; conditions: in vivo, 504 h
ECa-109 cell line [28] = assay: Induction of apoptosis in human EC109 cells assessed as increase in Bax level at 15 uM in presence of 5 nM paclitaxel by Western blot method; assay type: functional, cell-based
ECa-109 cell line [29] = assay: Induction of apoptosis in human EC109 cells assessed as necrotic cells at 15 uM after 24 hrs by Annexin V-FITC/propidium iodide staining based flow cytometry (reference value: 1.6 %); assay type: functional

**Q.** How did the Activity (ECa-109 cell line [1]) turn out when `C=C1C(=O)[C@@]23[C@@H]4OC(c5ccc(Cl)cc5)O[C@@]25OC[C@@]2([C@H]([C@@H]5O)C(C)(C)CC[C@@H]2O)[C@@H]3CC[C@@H]14` (some centres undefined) was run?
**A.** The Activity was “Active”.

**Q.** What about the TGI (ECa-109 cell line [2]) of the same compound?
**A.** Its TGI is 77.21%.

**Q.** And the Activity (ECa-109 cell line [3])?
**A.** The Activity was 9.7%.

**Q.** What about the CI (ECa-109 cell line [4]) of the same compound?
**A.** Its CI is 1.12.

**Q.** And the Activity (ECa-109 cell line [5])?
**A.** The Activity was “Active”.

**Q.** And the Activity (Mus musculus [6])?
**A.** Its Activity is “Non-Toxic”.

**Q.** What about the CI (ECa-109 cell line [7]) of the same compound?
**A.** The CI was 0.93.

**Q.** What about the Activity (ECa-109 cell line [8]) of the same compound?
**A.** The Activity was “Active”.

**Q.** What about the Activity (ECa-109 cell line [9]) of the same compound?
**A.** Its Activity is “Active”.

**Q.** What about the Activity (Mus musculus [10]) of the same compound?
**A.** The Activity was “Non-Toxic”.

**Q.** And the Activity (ECa-109 cell line [11])?
**A.** Its Activity is “Active”.

**Q.** What about the Activity (ECa-109 cell line [12]) of the same compound?
**A.** The Activity was “Active”.

**Q.** What about the Activity (ECa-109 cell line [13]) of the same compound?
**A.** Its Activity is “Active”.

**Q.** What about the Activity (Mus musculus [14]) of the same compound?
**A.** The Activity was “Non-Toxic”.

**Q.** And the CI (ECa-109 cell line [15])?
**A.** The CI was 1.15.

**Q.** What about the Activity (Mus musculus [16]) of the same compound?
**A.** Its Activity is “Non-Toxic”.

**Q.** And the Activity (ECa-109 cell line [17])?
**A.** The Activity was “Active”.

**Q.** And the CI (ECa-109 cell line [18])?
**A.** The CI was 1.79.

**Q.** And the Activity (Mus musculus [19])?
**A.** The Activity was “Non-Toxic”.

**Q.** What about the Activity (ECa-109 cell line [20]) of the same compound?
**A.** The Activity was “Active”.

**Q.** What about the Activity (ECa-109 cell line [21]) of the same compound?
**A.** Its Activity is “Dose-dependent effect”.

**Q.** And the Activity (ECa-109 cell line [22])?
**A.** Its Activity is “Active”.

**Q.** What about the Activity (Mus musculus [23]) of the same compound?
**A.** The Activity was “Non-Toxic”.

**Q.** And the Activity (ECa-109 cell line [24])?
**A.** The Activity was “Active”.

**Q.** What about the viability at 15 µM (ECa-109 cell line [25]) of the same compound?
**A.** Its viability at 15 µM is 73.1%.

**Q.** And the Activity (Mus musculus [26])?
**A.** The Activity was “Non-Toxic”.

**Q.** What about the Activity (Mus musculus [27]) of the same compound?
**A.** Its Activity is “Non-Toxic”.

**Q.** What about the Activity (ECa-109 cell line [28]) of the same compound?
**A.** Its Activity is “Active”.

**Q.** What about the Activity (ECa-109 cell line [29]) of the same compound?
**A.** Its Activity is 1.3%.
